Reference: patent publication US20150290354A1, “NONWOVEN FIBER MATERIALS” (NORTH CAROLINA STATE UNIVERSITY, priority 2012, published 2015)
“Also recorded” adds a separate entry of the source.

Legend:
Assay in all cases: Minimum inhibitory / bactericidal concentration (MIC/MBC) test, 96-well serial dilution
[1] = test system: E. Coli J53pMG101 (silver resistant); type: cell-based, Escherichia coli; conditions: up to 1000 μg/ml
Protocol: (§1) A minimum inhibitory concentration (MIC) test was conducted to measure the efficiency of certain silver-based antimicrobials against each bacterial isolate. A sterile round-bottom plastic 96-well plate containing […] of serially 1:2 diluted concentrations of antimicrobial solutions was inoculated with […] of 5-8×10^5 CFU/ml of each bacterial isolate. Each antimicrobial sample was tested at 15 serially diluted concentrations starting at their original highest concentration (0.015-1000 μg/ml).
(§2) After 24 h of incubation, 10 μl of the suspension from all of the clear wells (showing no bacterial growth) was dropped onto a MH agar plate and incubated for 24 h.
The mass concentration of these nanoparticles dispersed in water was 1.0 mg/mL The Silvadur ET solution containing 2.6-3.1 wt % silver ions was used at its original concentration (1.0 mg/mL). Silver nitrate was also dissolved in distilled water to create a 1 mg/mL solution. A gram negative (Escherichia coli J53) and gram positive (staphylococcus aureus—a common bacteria to cause skin infections) bacteria were employed for the experiment. Cation-adjusted Mueller-Hinton (MH) broth and agar (Difco Laboratories, Detroit, Mich., USA) were utilized to prepare bacterial cultivating medium. Isolated bacterial colonies were grown overnight in an incubator (37° C., 5% CO2) from frozen samples on an agar plate. […]

Escherichia coli J53 = type: cell-based; conditions: n=6
Protocol: as §1, §2
(§3) The mass concentration of these nanoparticles dispersed in water was 1.0 mg/mL The Silvadur ET solution containing 2.6-3.1 wt % silver ions was used at its original concentration (1.0 mg/mL). Silver nitrate was also dissolved in distilled water to create a 1 mg/mL solution. A gram negative (Escherichia coli J53) and gram positive (staphylococcus aureus—a common bacteria to cause skin infections) bacteria were employed for the experiment. Cation-adjusted Mueller-Hinton (MH) broth and agar (Difco Laboratories, Detroit, Mich., USA) were utilized to prepare bacterial cultivating medium. Isolated bacterial colonies were grown overnight in an incubator (37° C., 5% CO2) from frozen samples on an agar plate. For Agresistant bacteria (E. coli J53 [pMG101]), […] ampicillin sodium salt (Fisher Scientific, USA) was also added to the agar plates. The bacterial colony was suspended in phosphate buffered saline (PBS) to obtain 0.5 McFarland (10^5 CFU/ml). Microplates were incubated at 37° C. and shaken at 200 rpm for 24 hours. To control the accuracy of bacterial seeding density, bacteria were diluted in PBS at 103, 104, 105, and 106 and cultured overnight.
(§4) A gram negative (Escherichia coli J53) and gram positive (staphylococcusaureus, a common bacteria that causes skin infections) bacteria were employed for the experiment. Cation-adjusted Mueller-Hinton (MH) broth and agar (Difco Laboratories, Detroit, Mich., USA) were used to prepare bacterial cultivating medium. Isolated bacterial colonies were grown overnight in an incubator (37° C., 5% CO2) from frozen samples on an agar plate. For Ag-resistant bacteria (E. coli J53 [pMG101]) […] ampicillin sodium salt (Fisher Scientific, USA) was also added to the agar plates. The bacterial colony was suspended in phosphate buffered saline (PBS) to get 0.5 McFarland (10^5 CFU/ml). Microplates were incubated at 37° C. and shaken at 200 rpm for 24 h. To control the accuracy of bacterial seeding density, bacteria were diluted in PBS at 10^3, 10^4, 10^5, and 10^6 and plated overnight.
as §1, with “The minimum” for “A minimum”, “of silver based” for “of certain silver-based”, “μg/ml). […] After 24 h of incubation, 10 μl of the suspension from all of the clear wells (showing no bacterial growth) was dropped onto a MH agar plate and incubated for 24 h.” for “μg/ml).”

Staphylococcus aureus = type: cell-based; conditions: n=6
Protocol: as §1, §2, §3, §4
as §1, with “The minimum” for “A minimum”, “of silver based” for “of certain silver-based”, “μg/ml). […] After 24 h of incubation, 10 μl of the suspension from all of the clear wells (showing no bacterial growth) was dropped onto a MH agar plate and incubated for 24 h.” for “μg/ml).”

[2] = Table 1, Example 1, 24 h incubation

O=[N+]([O-])[O-].[Ag+] [Silver nitrate]
Observation of silver resistant E. coli J53 (pMG101) in the presence of the antimicrobial [1]: confirmed the resistance of E. coli J53 to silver; also recorded: confirmed its resistance to silver | Minimum Inhibitory Concentrations (MIC) Escherichia coli J53 (Escherichia coli J53; [2]): 7.81 µg/mL | Minimum Bacterial Concentrations (MBC) Escherichia coli J53 (Escherichia coli J53; Table 2, Example 1): 15.62 µg/mL | Minimum Inhibitory Concentrations (MIC) Escherichia coli J53 (Escherichia coli J53; Table 9, Example 4): 7.81 µg/mL | Minimum Bacterial Concentrations (MBC) Escherichia coli J53 (Escherichia coli J53; Table 10, Example 4): 15.62 µg/mL | Minimum Inhibitory Concentrations (MIC) Staphylococcus aureus (Staphylococcus aureus; [2]): 15.62 µg/mL | Minimum Bacterial Concentrations (MBC) Staphylococcus aureus (Staphylococcus aureus; Table 2, Example 1): 31.25 µg/mL | Minimum Inhibitory Concentrations (MIC) Staphylococcus aureus (Staphylococcus aureus; Table 9, Example 4): 15.62 µg/mL | Minimum Bacterial Concentrations (MBC) Staphylococcus aureus (Staphylococcus aureus; Table 10, Example 4): 31.25 µg/mL
